Experimental data from US20240269139A1, “COMPOUNDS FOR TARGETED PROTEIN DEGRADATION OF KINASES” (DANA-FARBER CANCER INSTITUTE, INC., priority 2020, published 2024).
Like-named read-outs stand apart in the source and are kept apart here.

Key:
Type in all cases: cell-based
[1] = molecular target: T1, protein kinases (human kinome) (Homo sapiens, UniProt P51955); details: NEK2 (P51955)
T1 sequence (P51955 1-445): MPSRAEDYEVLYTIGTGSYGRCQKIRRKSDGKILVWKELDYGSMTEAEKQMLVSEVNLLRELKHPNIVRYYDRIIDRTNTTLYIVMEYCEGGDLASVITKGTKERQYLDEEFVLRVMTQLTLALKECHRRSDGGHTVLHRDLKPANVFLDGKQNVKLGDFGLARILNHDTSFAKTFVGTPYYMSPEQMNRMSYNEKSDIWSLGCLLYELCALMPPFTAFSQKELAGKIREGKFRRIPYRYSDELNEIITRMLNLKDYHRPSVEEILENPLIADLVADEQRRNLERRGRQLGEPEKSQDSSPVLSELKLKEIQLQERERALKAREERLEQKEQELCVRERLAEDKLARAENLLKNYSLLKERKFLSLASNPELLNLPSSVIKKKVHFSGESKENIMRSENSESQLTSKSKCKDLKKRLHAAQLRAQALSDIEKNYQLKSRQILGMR

[2] = molecular target: protein kinases (human kinome) (Homo sapiens, UniProt P36894); details: for logFC: BMPR1A (P36894)
Chain of protein kinases (human kinome) (Homo sapiens, UniProt P36894) (P36894 24-532): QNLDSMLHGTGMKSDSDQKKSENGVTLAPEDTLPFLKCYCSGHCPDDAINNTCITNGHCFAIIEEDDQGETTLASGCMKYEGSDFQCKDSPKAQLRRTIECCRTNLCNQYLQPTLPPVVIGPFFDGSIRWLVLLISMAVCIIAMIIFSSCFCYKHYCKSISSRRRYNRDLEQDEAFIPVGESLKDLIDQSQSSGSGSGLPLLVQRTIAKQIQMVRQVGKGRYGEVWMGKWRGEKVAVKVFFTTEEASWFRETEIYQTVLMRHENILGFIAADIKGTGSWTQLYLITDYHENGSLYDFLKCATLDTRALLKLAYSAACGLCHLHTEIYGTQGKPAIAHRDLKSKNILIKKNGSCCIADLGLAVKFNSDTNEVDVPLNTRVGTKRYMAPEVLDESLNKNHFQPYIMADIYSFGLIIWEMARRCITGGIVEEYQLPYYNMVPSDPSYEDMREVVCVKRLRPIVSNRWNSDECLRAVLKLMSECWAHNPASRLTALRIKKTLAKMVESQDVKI

[3] = molecular target: protein kinases (human kinome) (Homo sapiens, UniProt Q9Y243); details: AKT3 (Q9Y243-1)
Chain of protein kinases (human kinome) (Homo sapiens, UniProt Q9Y243) (Q9Y243 whole entry): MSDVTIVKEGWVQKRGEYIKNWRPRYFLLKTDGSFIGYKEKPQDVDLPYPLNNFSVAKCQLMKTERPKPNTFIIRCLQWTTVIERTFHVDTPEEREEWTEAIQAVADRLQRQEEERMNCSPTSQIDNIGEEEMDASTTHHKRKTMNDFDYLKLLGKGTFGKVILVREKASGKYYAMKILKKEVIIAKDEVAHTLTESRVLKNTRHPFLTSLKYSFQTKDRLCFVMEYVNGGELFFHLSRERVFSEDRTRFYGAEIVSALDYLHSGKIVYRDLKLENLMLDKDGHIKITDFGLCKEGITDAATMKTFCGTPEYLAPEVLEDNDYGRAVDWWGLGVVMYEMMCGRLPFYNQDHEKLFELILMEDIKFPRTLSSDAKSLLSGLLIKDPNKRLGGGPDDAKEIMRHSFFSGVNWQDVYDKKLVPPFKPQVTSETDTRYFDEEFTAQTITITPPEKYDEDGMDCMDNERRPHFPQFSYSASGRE

[4] = molecular target: protein kinases (human kinome) (Homo sapiens, UniProt Q5TCX8); details: for logFC: MAP3K21 (Q5TCX8); for logFC MAP3K21 (Q5TCX8): direction of change down
Chain of protein kinases (human kinome) (Homo sapiens, UniProt Q5TCX8) (Q5TCX8 whole entry): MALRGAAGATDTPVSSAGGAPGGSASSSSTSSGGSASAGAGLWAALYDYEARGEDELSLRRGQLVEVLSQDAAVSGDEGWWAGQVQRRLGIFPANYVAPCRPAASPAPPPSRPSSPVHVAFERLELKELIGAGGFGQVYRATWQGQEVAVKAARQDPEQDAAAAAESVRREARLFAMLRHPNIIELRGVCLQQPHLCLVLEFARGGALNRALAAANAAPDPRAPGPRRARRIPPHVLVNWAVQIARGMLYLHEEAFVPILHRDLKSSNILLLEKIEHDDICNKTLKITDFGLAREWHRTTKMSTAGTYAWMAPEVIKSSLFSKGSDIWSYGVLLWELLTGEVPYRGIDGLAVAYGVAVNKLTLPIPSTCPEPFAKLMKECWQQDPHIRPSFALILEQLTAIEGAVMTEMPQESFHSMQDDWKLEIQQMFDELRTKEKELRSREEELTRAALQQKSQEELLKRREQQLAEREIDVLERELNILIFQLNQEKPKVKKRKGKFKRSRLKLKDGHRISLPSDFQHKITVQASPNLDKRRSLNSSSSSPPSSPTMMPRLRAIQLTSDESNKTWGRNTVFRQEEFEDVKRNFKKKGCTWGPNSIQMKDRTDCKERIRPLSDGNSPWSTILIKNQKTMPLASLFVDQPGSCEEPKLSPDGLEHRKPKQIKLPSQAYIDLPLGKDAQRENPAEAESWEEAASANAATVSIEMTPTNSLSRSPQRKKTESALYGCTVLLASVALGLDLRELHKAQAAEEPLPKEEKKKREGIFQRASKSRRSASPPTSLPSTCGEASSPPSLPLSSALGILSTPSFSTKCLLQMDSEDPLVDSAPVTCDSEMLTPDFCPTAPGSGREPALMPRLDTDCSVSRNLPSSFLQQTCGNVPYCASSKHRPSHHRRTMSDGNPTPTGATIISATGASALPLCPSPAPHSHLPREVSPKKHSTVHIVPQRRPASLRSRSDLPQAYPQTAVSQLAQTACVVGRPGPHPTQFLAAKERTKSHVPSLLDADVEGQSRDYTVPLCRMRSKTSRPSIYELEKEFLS

[5] = molecular target: protein kinases (human kinome) (Homo sapiens, UniProt P07948); details: for logFC: LYN (P07948-1)
Chain of protein kinases (human kinome) (Homo sapiens, UniProt P07948) (P07948 whole entry): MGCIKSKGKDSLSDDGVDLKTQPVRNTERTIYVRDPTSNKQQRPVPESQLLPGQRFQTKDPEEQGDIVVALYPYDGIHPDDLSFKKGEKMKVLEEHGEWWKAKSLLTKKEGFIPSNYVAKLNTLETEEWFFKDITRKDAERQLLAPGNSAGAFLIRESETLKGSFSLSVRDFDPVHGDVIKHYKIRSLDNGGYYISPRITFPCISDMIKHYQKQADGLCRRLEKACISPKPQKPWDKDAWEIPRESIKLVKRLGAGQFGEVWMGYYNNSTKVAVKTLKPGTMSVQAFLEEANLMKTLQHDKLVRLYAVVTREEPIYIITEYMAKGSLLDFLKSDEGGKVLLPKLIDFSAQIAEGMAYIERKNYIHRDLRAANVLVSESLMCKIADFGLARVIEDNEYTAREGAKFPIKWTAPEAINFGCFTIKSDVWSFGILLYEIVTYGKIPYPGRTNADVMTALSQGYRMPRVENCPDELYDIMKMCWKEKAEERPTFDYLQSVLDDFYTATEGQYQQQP

[6] = molecular target: T2, protein kinases (human kinome) (Homo sapiens, UniProt P21709); details: for logFC of EPHA1 (P21709): Experiment wp114; for logFC EPHA1: protein EPHA1 (P21709), experiment wp114, direction of change down
T2 sequence (P21709 26-976): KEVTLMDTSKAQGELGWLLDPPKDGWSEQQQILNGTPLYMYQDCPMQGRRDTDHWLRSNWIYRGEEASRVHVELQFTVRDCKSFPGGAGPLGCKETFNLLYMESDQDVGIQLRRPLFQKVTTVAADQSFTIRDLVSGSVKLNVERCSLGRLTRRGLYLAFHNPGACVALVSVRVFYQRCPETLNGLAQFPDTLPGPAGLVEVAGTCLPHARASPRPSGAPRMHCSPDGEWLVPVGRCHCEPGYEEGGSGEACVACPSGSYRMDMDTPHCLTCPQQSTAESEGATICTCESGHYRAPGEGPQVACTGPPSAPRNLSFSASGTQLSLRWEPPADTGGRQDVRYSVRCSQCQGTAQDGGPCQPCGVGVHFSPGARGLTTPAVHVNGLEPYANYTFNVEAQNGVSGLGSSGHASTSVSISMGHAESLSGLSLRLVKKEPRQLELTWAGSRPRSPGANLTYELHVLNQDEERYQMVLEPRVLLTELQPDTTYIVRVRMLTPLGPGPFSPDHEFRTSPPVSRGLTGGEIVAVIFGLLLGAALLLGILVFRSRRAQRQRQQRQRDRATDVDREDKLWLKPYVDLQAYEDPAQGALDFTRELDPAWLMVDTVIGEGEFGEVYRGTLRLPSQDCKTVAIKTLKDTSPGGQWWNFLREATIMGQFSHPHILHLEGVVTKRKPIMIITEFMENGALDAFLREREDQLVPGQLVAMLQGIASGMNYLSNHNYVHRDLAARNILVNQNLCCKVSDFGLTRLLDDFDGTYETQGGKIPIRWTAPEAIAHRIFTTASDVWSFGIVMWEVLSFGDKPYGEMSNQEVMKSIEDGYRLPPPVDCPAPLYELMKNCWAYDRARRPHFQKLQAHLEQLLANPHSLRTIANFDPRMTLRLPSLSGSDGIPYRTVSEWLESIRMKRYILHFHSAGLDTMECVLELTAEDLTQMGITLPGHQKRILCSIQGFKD

[7] = experiment wp105, direction down

CC(C)S(=O)(=O)c1ccccc1Nc1nc(Nc2ccc(N3CCN(CCOCCNC(=O)CNc4cccc5c4C(=O)N(C4CCC(=O)NC4=O)C5=O)CC3)cc2)ncc1Cl (centres unmarked) [SK.3.91]
logFC ([1]; experiment wp103): −0.4564
logFC ([1]; experiment wp103, direction down): −0.4564
logFC ([1]; experiment wp105): −0.3908
logFC [1, 7]: −0.3908
logFC ([1]; experiment wp107): −0.6368
logFC ([1]; experiment wp107, direction down): −0.6368
logFC ([1]; experiment wp133, 1 hr): −0.4397
logFC ([1]; experiment wp133, 1 hr, direction down): −0.4397
logFC ([1]; experiment wp133, 2 hr): −0.4411
logFC ([1]; experiment wp133, 2 hr, direction down): −0.4411
logFC ([1]; experiment wp133, 4 hr): −0.7303
logFC ([1]; experiment wp133, 4 hr, direction down): −0.7303
logFC ([1]; experiment wp160, 4 hr): −0.4294
logFC ([1]; experiment wp160, 4 hr, direction down): −0.4294
logFC ([2]; experiment wp105): −0.4077
logFC ([2]; experiment wp107): −1.103
logFC ([2]; experiment wp133, 4 hr): −0.8007
logFC of BMPR1A (P36894) ([2]; Experiment wp107): −1.103
logFC of BMPR1A (P36894) ([2]; experiment wp105): −0.4077
logFC of BMPR1A (P36894) ([2]; experiment wp133, 4 hr): −0.8007
logFC ([3]; experiment wp105): −0.7783
logFC [3, 7]: −0.7783
logFC ([4]; experiment wp133, 4 hr): −0.4685
logFC MAP3K21 (Q5TCX8) ([4]; experiment wp133, 4 hr): −0.4685

C[C@@H]1C[C@@H](O)c2ncnc(N3CCN(C(=O)[C@H](CNCCCCCCCCCCc4cccc5c4C(=O)N(C4CCC(=O)NC4=O)C5=O)c4ccc(Cl)cc4)CC3)c21 (some centres unmarked) [INY.03.041.01]
logFC ([3]; experiment wp118): −2.769
logFC ([3]; experiment wp118, direction down): −2.769
logFC ([3]; experiment wp135, 4 hr): −1.925
logFC ([3]; experiment wp135, 4 hr, direction down): −1.925

Cc1ccc(NC(=O)c2cccc(C(F)(F)F)c2)cc1N1Cc2cnc(Nc3ccc(N4CCN(Cc5cn(CCCCCOc6cccc7c6C(=O)N(C6CCC(=O)NC6=O)C7=O)nn5)CC4)nc3)nc2N(C)C1=O (centres unmarked) [DB0646, N-(3-(7-((6-(4-((1-(5-((2-(2,6-Dioxopiperidin-3-yl)-1,3-dioxoisoindolin-4-yl)oxy)pentyl)-1H-1,2,3-triazol-4-yl)methyl)piperazin-1-v)pyridin-3-yl)amino)-1-methyl-2-oxo-1,4-dihydropyrimido[4,5-d]pyrimidin-3(2H)-yl)-4-methylphenyl)-3-(trifluoromethyl)benzamide]
logFC of LYN (P07948-1) ([5]; Experiment wp172): −0.7938
logFC ([5]; experiment wp172): −0.7938

CC(C)S(=O)(=O)c1ccccc1Nc1nc(Nc2ccc(N3CCN(CCOCCOCCNC(=O)CNc4cccc5c4C(=O)N(C4CCC(=O)NC4=O)C5=O)CC3)cc2)ncc1Cl (centres unmarked) [TL12.186]
logFC ([1]; experiment wp131): −0.3783
logFC ([1]; experiment wp131, direction down): −0.3783
logFC ([2]; experiment wp131): −0.8334
logFC ([2]; experiment wp137): −0.6566
logFC of BMPR1A (P36894) ([2]; experiment wp131): −0.8334
logFC of BMPR1A (P36894) ([2]; experiment wp137): −0.6566
logFC ([4]; experiment wp131): −0.969
logFC MAP3K21 (Q5TCX8) ([4]; experiment wp131): −0.969

Cc1ncsc1-c1ccc([C@H](C)NC(=O)[C@@H]2C[C@@H](O)CN2C(=O)[C@@H](NC(=O)CCOCCOCCN2CCN(c3ccc(Nc4ncc(Cl)c(Nc5ccccc5S(=O)(=O)C(C)C)n4)cc3)CC2)C(C)(C)C)cc1 [FMF.06.098.1]
logFC of EPHA1 (P21709) [6]: −0.422
logFC EPHA1 [6]: −0.422

Cc1ccc(C(=O)Nc2ccc(CN3CCN(CCCOCCOCCOCCNC(=O)COc4cccc5c4C(=O)N(C4CCC(=O)NC4=O)C5=O)CC3)c(C(F)(F)F)c2)cc1C#Cc1cnc2cccnn12 (centres unmarked) [SB1.G.187]
logFC ([5]; experiment wp172): −1.23
logFC LYN (P07948-1) ([5]; experiment wp172, direction of change down): −1.23
logFC of EPHA1 (P21709) [6]: −0.3552
logFC EPHA1 [6]: −0.3552
